Laboratory results reported in patent US9981923B2, “1,2,3 Triazole antifungal agents and preparation thereof” (COUNCIL OF SCIENTIFIC & INDUSTRIAL RESEARCH, priority 2014, dated 2018).
In brackets after ≈: the same amount, converted by molar mass. Read-outs that look alike come from different tables or passages of the source.

Experiments:
ergosterol = assay: Effect of the compounds on sterol profile (spectrophotometric ergosterol quantitation); assay type: cell-based, C. albicans ATCC 24433; conditions: for ergosterol depletion (sterol profile, height of absorbance peaks 220-300 nm): C. albicans ATCC 24433, 24 h, 0.5 MIC and MIC of the lead compounds; for inhibition of lanosterol 14 α-demethylase enzyme (concluded from ergosterol depletion): C. albicans ATCC 24433 sterol profile
Experimental: Inhibition of lanosterol 14 α-demethylase by azoles results in depletion of ergosterol. The depletion can be quantified by spectrophotometry. Briefly, Overnight grown C. albicans ATCC 24433 (1×10^6 cfu/ml) cells were inoculated in a series of flasks containing 50 ml of Yeast extract Peptone Glucose (YPG) broth containing […] of fluconazole per ml as well as 0.5 MIC and MIC of the lead compounds. The cultures were incubated for 24 h with shaking at 30° C. The stationary-phase cells were harvested by centrifugation […] and washed once with sterile distilled water. The net wet weight of the cell pellet was determined. Three milliliters of 25% alcoholic potassium hydroxide solution (25 g of […] and 35 ml of sterile distilled water, brought to 100 ml with 100% ethanol), was added to 125 mg of pellet and vortex mixed for 1 min. Cell suspensions were transferred to sterile borosilicate glass screw-cap tubes and were incubated in an 85° C. water bath for 1 h. Following incubation, tubes were allowed to cool to room temperature. Sterols were then extracted by addition of a mixture of 1 ml of sterile distilled water and 3 ml of n-heptane followed by vigorous vortex mixing for 3 min. The heptane layer was transferred to a clean borosilicate glass screw-cap tube. The sterol extract was scanned spectrophotometrically between 220 and 300 nm with a Spectrophotometer.

[1] = system: Aspergillus fumigatus MCC 1046; assay: Antifungal susceptibility by microbroth dilution (CLSI); assay type: cell-based
Experimental: (§1) The synthesized compounds were evaluated for antifungal susceptibility by microbroth dilution method according to the recommendations of the Clinical Laboratory Standards Institute (CLSI 2008). Briefly, appropriate amount of compounds were dissolved in dimethyl sulfoxide to get 100× final strength. The stock was then diluted 1:50 in RPMI/YPG medium and 200 μl from this was added to the first row of a 96-well microtitre plate. The compounds were serially diluted two fold in successive wells to get a range of 1-128 μg/ml. Fungal yeast cells (˜2×10^3 cfu/mL), freshly grown in YPG broth in logarithmic phase, were suspended in the medium and inoculated (100 μl) in the wells of the plate. For filamentous fungi, 2×10^4 spores/mL were added. The microtitre plate was incubated for 48 h, and the absorbance was measured at 600 nm by using microtitre plate reader to assess cell growth.

[2] = system: Aspergillus niger ATCC 10578; assay: as above; assay type: cell-based
Experimental: as §1

[3] = system: Candida albicans ATCC 24433; assay: as above; assay type: cell-based
Experimental: as §1

[4] = system: Candida glabrata NCYC 388; assay: as above; assay type: cell-based
Experimental: as §1

[5] = system: Cryptococcus neoformans ATCC 34664; assay: as above; assay type: cell-based
Experimental: as §1

[6] = system: Candida albicans ATCC 10231; assay: as above; assay type: cell-based
Experimental: as §1

pathogenic fungi = assay: Antifungal activity, overall assessment of the microbroth dilution results; assay type: cell-based; conditions: based on the MIC results
Experimental: as §1

C. tropicalis ATCC 750 = assay: Antifungal susceptibility by microbroth dilution (CLSI); assay type: cell-based; conditions: Candida tropicalis, ATCC750; Table 2
Experimental: as §1

[7] = Aspergillus fumigatus, MCC1046, Table 1, 48 h, >90% inhibition of growth, read-out: MIC
[8] = Aspergillus niger, ATCC10578, Table 1, 48 h, >90% inhibition of growth, read-out: MIC
[9] = Candida albicans, ATCC24433, Table 1, 48 h, >90% inhibition of growth, range 1-128 μg/ml, read-out: MIC
[10] = Nakaseomyces glabratus, NCYC388, Table 1, 48 h, >90% inhibition of growth, read-out: MIC
[11] = Cryptococcus neoformans, ATCC34664, Table 1, 48 h, >90% inhibition of growth, read-out: MIC
[12] = Candida albicans, ATCC10231, Table 1, 48 h, >90% inhibition of growth, read-out: MIC
[13] = Aspergillus fumigatus, MCC1046, Table 2, read-out: MIC values
[14] = Aspergillus niger, ATCC10578, Table 2, read-out: MIC values
[15] = Candida albicans, ATCC10231, Table 2, read-out: MIC values
[16] = Candida albicans, ATCC24433, Table 2, read-out: MIC values
[17] = Nakaseomyces glabratus, NCYC388, Table 2, read-out: MIC values
[18] = Cryptococcus neoformans, ATCC34664, Table 2, read-out: MIC values
[19] = Table 1, 48 h, >90% inhibition of growth

melting point | MIC [1, 7] | MIC [2, 8] | MIC [3, 9] | MIC [4, 10] | MIC [5, 11] | Structure (SMILES) | further results
232 to 234 °C |  |  |  |  |  | CC(O)(c1ccccc1)c1cn(-c2ccc(Cl)cc2O)nn1 (stereo not drawn) [Compound 2cb, 5-Chloro-2-(4-(1-hydroxy-1-phenylethyl)-1H-1,2,3-triazol-1-yl)phenol] | ergosterol depletion (sterol profile, height of absorbance peaks 220-300 nm) (ergosterol): no ergosterol depletion was observed
211 to 213 °C | > 128 µg/mL | > 128 µg/mL | 128 µg/mL (≈ 292 µM) | 128 µg/mL (≈ 292 µM) | 16 µg/mL (≈ 36.6 µM) | Oc1ccc(Cl)cc1-n1cc(C(O)c2cc(C(F)(F)F)cc(C(F)(F)F)c2)nn1 (stereo not drawn) [Compound 1ba, 2-(4-((3,5-Bis(trifluoromethyl)phenyl)(hydroxy)methyl)-1H-1,2,3-triazol-1-yl)-4-chlorophenol] | 
210 to 212 °C |  |  |  |  |  | Oc1cc(Cl)ccc1-n1cc(CC(O)(c2ccccc2)c2ccccc2)nn1 [Compound 2ib, 5-Chloro-2-(-4-(2-hydroxy-2,2-diphenylethyl)-1H-1,2,3-triazol-1-yl)phenol] | 
191 to 193 °C | 64 µg/mL (≈ 194 µM) | 64 µg/mL (≈ 194 µM) | 64 µg/mL (≈ 194 µM) | 32 µg/mL (≈ 97 µM) | 32 µg/mL (≈ 97 µM) | Cc1cc(C)cc(C(O)c2cn(-c3cc(Cl)ccc3O)nn2)c1 (stereo not drawn) [Compound 1aa, 4-Chloro-2-(4-((3,5-dimethylphenyl)(hydroxy)methyl)-1H-1,2,3-triazol-1-yl)phenol] | 
171 to 172 °C |  |  |  |  |  | Oc1cc(Cl)ccc1-n1cc(CC(O)c2ccccc2)nn1 (stereo not drawn) [Compound 1eb, 5-Chloro-2-(4-(2-hydroxy-2-phenylethyl)-1H-1,2,3-triazol-1-yl)phenol] | 
165 to 167 °C |  |  |  |  |  | CCCCC(O)(Cc1cn(-c2cc(Cl)ccc2O)nn1)c1ccccc1 (stereo not drawn) [Compound 2ha, 4-chloro-2-(4-(2-hydroxy-2-phenylhexyl)-1H-1,2,3-triazol-1-yl)phenol] | 
181 to 183 °C |  |  |  |  |  | Oc1ccc(Cl)cc1-n1cc(CC(O)c2cc(C(F)(F)F)cc(C(F)(F)F)c2)nn1 (stereo not drawn) [Compound 1ja, 2-(-4-(2-(3,5-Bis(trifluoromethyl)phenyl)-2-hydroxyethyl)-1,2,3-triazol-1-yl)-4-chlorophenol] | 
194 to 196 °C | 128 µg/mL (≈ 327 µM) | > 128 µg/mL | 128 µg/mL (≈ 327 µM) | 128 µg/mL (≈ 327 µM) | > 128 µg/mL | Oc1ccc(Cl)cc1-n1cc(CC(O)(c2ccccc2)c2ccccc2)nn1 [Compound 2ia, 4-Chloro-2-(4-(2-hydroxy-2,2-diphenylethyl)-1H-1,2,3-triazol-1-yl)phenol] | 
 |  |  |  |  |  | CC(O)(Cc1cn(-c2ccc(Cl)cc2O)nn1)c1ccc(Cl)cc1 (stereo not drawn) [Compound 3eb, 5-Chloro-2-(4-(2-(4-chlorophenyl)-2-hydroxypropyl)-1H-1,2,3-triazol-1-yl)phenol] | MIC [1, 13]: 64 µg/mL (≈ 176 µM); MIC [2, 14]: 64 µg/mL (≈ 176 µM); MIC (C. tropicalis ATCC 750): 64 µg/mL (≈ 176 µM); MIC [6, 15]: 16 µg/mL (≈ 43.9 µM); MIC [3, 16]: 32 µg/mL (≈ 87.9 µM); MIC [4, 17]: 32 µg/mL (≈ 87.9 µM); MIC [5, 18]: 32 µg/mL (≈ 87.9 µM)
 |  |  |  |  |  | CC(O)(c1ccccc1)c1cn(-c2cc(Cl)ccc2O)nn1 (stereo not drawn) [Compound 2ca] | inhibition of lanosterol 14 α-demethylase enzyme (concluded from ergosterol depletion) (ergosterol): potent inhibitors
 |  |  |  |  |  | CC(O)(Cc1cn(-c2ccc(Cl)cc2O)nn1)c1ccc(Cl)cc1Cl (stereo not drawn) [Compound 3bb, 5-Chloro-2-(4-(2-(2,4-dichlorophenyl)-2-hydroxypropyl)-1H-1,2,3-triazol-1-yl)phenol] | MIC [1, 13]: 16 µg/mL (≈ 40.1 µM); MIC [2, 14]: 32 µg/mL (≈ 80.3 µM); MIC (C. tropicalis ATCC 750): 32 µg/mL (≈ 80.3 µM); MIC [6, 15]: 16 µg/mL (≈ 40.1 µM); MIC [3, 16]: 4 µg/mL (≈ 10 µM); MIC [4, 17]: 16 µg/mL (≈ 40.1 µM); MIC [5, 18]: 8 µg/mL (≈ 20.1 µM)
148 to 150 °C | 128 µg/mL (≈ 405 µM) | 64 µg/mL (≈ 203 µM) | 64 µg/mL (≈ 203 µM) | 128 µg/mL (≈ 405 µM) | > 128 µg/mL | Oc1ccc(Cl)cc1-n1cc(CC(O)c2ccccc2)nn1 (stereo not drawn) [Compound 1ea, 4-Chloro-2-(4-(2-hydroxy-2-phenylethyl)-1H-1,2,3-triazol-1-yl)phenol] | 
189 to 190 °C |  |  |  |  |  | CC(O)(Cc1cn(-c2ccc(Cl)cc2O)nn1)c1ccccc1 (stereo not drawn) [Compound 2fb, 5-Chloro-2-(4-(2-hydroxy-2-phenylpropyl)-1H-1,2,3-triazol-1-yl)phenol] | 
192 to 194 °C |  |  |  |  |  | Oc1cc(Cl)ccc1-n1cc(CC(O)c2cc(C(F)(F)F)cc(C(F)(F)F)c2)nn1 (stereo not drawn) [Compound 1jb, 2-(4-(2-(3,5-Bis(trifluoromethyl)phenyl)-2-hydroxyethyl)-1H-1,2,3-triazol-1-yl)-5-chlorophenol] | 
 |  |  |  |  |  | CCC(O)(c1ccccc1)c1cn(-c2ccc(Cl)cc2O)nn1 (stereo not drawn) [Compound 1db] | MIC [1, 19]: >128 µg/mL; MIC [2, 19]: >128 µg/mL; MIC [6, 19]: 32 µg/mL (≈ 97 µM); MIC ([3]; Table 1, 48 h, >90% inhibition of growth, range 1-128 μg/ml): 16 µg/mL (≈ 48.5 µM); MIC [4, 19]: 8 µg/mL (≈ 24.3 µM); MIC [5, 19]: 16 µg/mL (≈ 48.5 µM); antifungal activity, overall assessment (pathogenic fungi): promising molecules
 |  |  |  |  |  | CC(O)(Cc1cn(-c2cc(Cl)ccc2O)nn1)c1ccc(Cl)cc1 (stereo not drawn) [Compound 3ea, 4-Chloro-2-(4-(2-(4-chlorophenyl)-2-hydroxypropyl)-1H-1,2,3-triazol-1-yl)phenol] | MIC [1, 13]: 64 µg/mL (≈ 176 µM); MIC [2, 14]: 64 µg/mL (≈ 176 µM); MIC (C. tropicalis ATCC 750): 64 µg/mL (≈ 176 µM); MIC [6, 15]: 8 µg/mL (≈ 22 µM); MIC [3, 16]: 16 µg/mL (≈ 43.9 µM); MIC [4, 17]: 16 µg/mL (≈ 43.9 µM); MIC [5, 18]: 32 µg/mL (≈ 87.9 µM)
156 to 158 °C |  |  |  |  |  | CC(O)(Cc1cn(-c2ccc(Cl)cc2O)nn1)c1cc(C(F)(F)F)cc(C(F)(F)F)c1 (stereo not drawn) [Compound 2sb, 2-(4-(2-(3,5-Bis(trifluoromethyl)phenyl)-2-hydroxypropyl)-1H-1,2,3-triazol-1-yl)-5-chlorophenol] | 

Structure (SMILES) | melting point | MIC [1, 7] | MIC [2, 8] | MIC [3, 9] | MIC [4, 10] | MIC [5, 11] | further results
OC(Cn1cncn1)(Cn1cncn1)c1ccc(F)cc1F [Fluconazole, reference compound] |  |  |  | 2 µg/mL (≈ 6.53 µM) |  | 32 µg/mL (≈ 104 µM) | MIC ([1]; Aspergillus fumigatus, MCC1046, 48 h): > 128 µg/mL; MIC ([2]; Aspergillus niger, ATCC10578, 48 h): > 128 µg/mL; MIC [6, 12]: 8 µg/mL (≈ 26.1 µM); MIC ([4]; Nakaseomyces glabratus, NCYC388, 48 h): > 128 µg/mL; ergosterol depletion (sterol profile, height of absorbance peaks 220-300 nm) (ergosterol): dose-dependent decrease in the height of the absorbance peaks
CCC(O)(Cc1cn(-c2ccc(Cl)cc2O)nn1)c1ccccc1 (stereo not drawn) [Compound 2gb, 5-Chloro-2-(4-(2-hydroxy-2-phenylbutyl)-1H-1,2,3-triazol-1-yl)phenol] | 129 to 131 °C | 8 µg/mL (≈ 23.3 µM) | > 128 µg/mL | 16 µg/mL (≈ 46.5 µM) | 8 µg/mL (≈ 23.3 µM) | 8 µg/mL (≈ 23.3 µM) | MIC [6, 12]: 16 µg/mL (≈ 46.5 µM); ergosterol depletion (sterol profile, height of absorbance peaks 220-300 nm) (ergosterol): most effective; antifungal activity, overall assessment (pathogenic fungi): promising molecules
CCC(O)(Cc1cn(-c2cc(Cl)ccc2O)nn1)c1ccccc1 (stereo not drawn) [Compound 2ga, 4-Chloro-2-(4-(2-hydroxy-2-phenylbutyl)-1H-1,2,3-triazol-1-yl)phenol] | 153 to 155 °C | 32 µg/mL (≈ 93.1 µM) | > 128 µg/mL | 16 µg/mL (≈ 46.5 µM) | 8 µg/mL (≈ 23.3 µM) | 16 µg/mL (≈ 46.5 µM) | MIC [6, 12]: 16 µg/mL (≈ 46.5 µM); inhibition of lanosterol 14 α-demethylase enzyme (concluded from ergosterol depletion) (ergosterol): potent inhibitors; antifungal activity, overall assessment (pathogenic fungi): promising molecules
